Experimental findings from patent US8481536B2, “Benzotriazine inhibitors of kinases” (TargeGen, Inc., priority 2004, dated 2013) are described below.

Molecules are shown by their SMILES.

Chain of Recombinant human c-Src (P12931 whole entry, looked up): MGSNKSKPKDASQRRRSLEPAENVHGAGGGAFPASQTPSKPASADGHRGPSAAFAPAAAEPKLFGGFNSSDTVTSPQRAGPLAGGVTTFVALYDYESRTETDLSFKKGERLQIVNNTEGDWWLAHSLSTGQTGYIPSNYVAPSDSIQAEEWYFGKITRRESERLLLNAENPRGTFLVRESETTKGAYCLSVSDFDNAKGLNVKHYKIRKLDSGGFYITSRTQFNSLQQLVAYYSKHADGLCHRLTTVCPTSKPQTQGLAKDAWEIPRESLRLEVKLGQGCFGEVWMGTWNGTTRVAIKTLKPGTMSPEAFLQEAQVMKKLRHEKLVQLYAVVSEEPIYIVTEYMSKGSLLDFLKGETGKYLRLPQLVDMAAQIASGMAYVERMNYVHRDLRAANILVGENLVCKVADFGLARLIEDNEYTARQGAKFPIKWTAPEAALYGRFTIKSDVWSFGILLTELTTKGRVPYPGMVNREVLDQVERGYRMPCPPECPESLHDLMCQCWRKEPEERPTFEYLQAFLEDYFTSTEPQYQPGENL

The test addresses Recombinant human c-Src (Homo sapiens (Human), UniProt P12931). Put plainly: Src kinase inhibition in vitro (luciferase-based residual ATP, KinaseGlo). The following applies: ATP 3 μM, PTK2 substrate, 90 minutes at room temperature. It is filed as biochemical. The method, then: The ability of compounds of the present invention to inhibit the activity of three groups of kinases was tested. Kinases tested included the src family (primarily src and yes), some angiogenic growth factor receptors (Fgfr1, Vegfr, and Pdgfrβ) and the ephrin, EphB4. All kinase reactions were conducted in 96-well plates with a final reaction volume of 50 ul.
After reacting for about 90 minutes at room temperature, residual ATP was determined using a luciferase-based assay (KinaseGlo, Promega Corp.) as a measure of kinase activity. Data from four wells were then averaged and used to determine IC50 values for the test compounds (Prism software package, GraphPad Software, San Diego Calif.).
The test results for inhibition of Src kinase are presented in Table 1, and the test results for inhibition of some other kinases (i.e., Yes, EphB4, and Pdgfrβ) are presented in Table 2.
Consider `Cc1ccc(C#N)cc1-c1cc(C)c2nc(Nc3ccc(S(=O)(=O)NCCN4CCCC4)cc3)nnc2c1`, for which the IC50 was 25.2 nM.
Take `Cc1cccc(C)c1-c1cc(C)c2nc(Nc3ccc(N(C)C)cc3)nnc2c1`: the IC50 turned out to be 244 nM.
Under `Cc1cc2nc(Nc3ccc(S(=O)(=O)NCCN4CCCC4)cc3)nnc2cc1-c1ccccc1` [4-(6-methyl-7-phenyl-benzo[1,2,4]triazin-3-ylamino)-N-(2-pyrrolidin-1-yl-ethyl)-benzenesulfonamide] stands 315 nM.
In the case of `Cc1cc(-c2c(O)cccc2Cl)cc2nnc(Nc3ccc(S(=O)(=O)NCCN4CCCC4)cc3)nc12` [4-(7-(2-chloro-6-hydroxyphenyl)-5-methylbenzo[e][1,2,4]triazin-3-ylamino)-N-(2-(pyrrolidin-1-yl)ethyl)benzensulfonamide], the IC50 is 12.6 nM.
To `CNc1cccc(-c2cc(C)c3nc(Nc4ccc(S(=O)(=O)NCCN5CCCC5)cc4)nnc3c2)c1` [4-[5-methyl-7-(3-methylamino-phenyl)-benzo[1,2,4]triazin-3-ylamino]-N-(2-pyrrolidin-1-yl-ethyl)-benzenesulfonamide] belongs 631 nM; to `Cc1cc2nc(Nc3ccc(S(=O)(=O)NCCN4CCCC4)cc3)nnc2cc1-c1ccccc1C(F)(F)F` [4-[6-methyl-7-(2-trifluoromethyl-phenyl)-benzo[1,2,4]triazin-3-ylamino]-N-(2-pyrrolidin-1-yl-ethyl)-benzenesulfonamide], 66.5 nM.
For the compound `Cc1cc(-c2c(Cl)cccc2Cl)cc2nnc(Nc3ccc(S(=O)(=O)NCCN4CCCC4)cc3)nc12` [4-[7-(2,6-dichloro-phenyl)-5-methyl-benzo[1,2,4]triazin-3-ylamino]-N-(2-pyrrolidin-1-yl-ethyl)-benzenesulfonamide], the IC50 was 14 nM.
Regarding `Cc1cc2nc(Nc3ccc(S(=O)(=O)NCCN4CCCC4)cc3)nnc2cc1-c1ccccc1CO` [4-[7-(2-Hydroxymethyl-phenyl)-6-methyl-benzo[1,2,4]triazin-3-ylamino]-N-(2-pyrrolidin-1-yl-ethyl)-benzenesulfonamide], the concentration for half-maximal inhibition (IC50) was 72.2 nM.
Under `Cc1cc(-c2cccc(N)c2)cc2nnc(Nc3ccc(S(=O)(=O)NCCN4CCCC4)cc3)nc12` [4-[7-(3-amino-phenyl)-5-methyl-benzo[1,2,4]triazin-3-ylamino]-N-(2-pyrrolidin-1-yl-ethyl)-benzenesulfonamide] stands 282 nM; under `Cc1cc(-c2cccc(NS(C)(=O)=O)c2)cc2nnc(Nc3ccc(S(=O)(=O)NCCN4CCCC4)cc3)nc12` [4-[7-(3-methanesulfonylamino-phenyl)-5-methyl-benzo[1,2,4]triazin-3-ylamino]-N-(2-pyrrolidin-1-yl-ethyl)-benzenesulfonamide], 2900 nM; under `Cc1ccc(C#N)cc1-c1cc2nnc(Nc3ccc(S(=O)(=O)NCCN4CCCC4)cc3)nc2cc1C` [4-[7-(5-Cyano-2-methyl-phenyl)-6-methyl-benzo[1,2,4]triazin-3-ylamino]-N-(2-pyrrolidin-1-yl-ethyl)-benzenesulfonamide], 12.3 nM.
With `Cc1cc(-c2cc(N)ccc2Cl)cc2nnc(Nc3ccc(S(=O)(=O)NCCN4CCCC4)cc3)nc12` [4-[7-(5-amino-2-chloro-phenyl)-5-methyl-benzo[1,2,4]triazin-3-ylamino]-N-(2-pyrrolidin-1-yl-ethyl)-benzenesulfonamide], the IC50 was determined as 51 nM.
Under `Cc1cccc(C)c1-c1cc(N)c2nc(Nc3ccc(OCCN4CCCC4)cc3)nnc2c1` [7-(2,6-dimethyl-phenyl)-N3-[4-(2-pyrrolidin-1-yl-ethoxy)-phenyl]-benzo[1,2,4]triazine-3,5-diamine] stands 9.7 nM.
Under `CNc1cc(-c2c(C)cccc2C)cc2nnc(Nc3ccc(OCCN4CCCC4)cc3)nc12` [7-(2,6-dimethyl-phenyl)-N5-methyl-N3-[4-(2-pyrrolidin-1-yl-ethoxy)-phenyl]-benzo[1,2,4]triazine-3,5-diamine] stands 10.6 nM.
For `Cc1cccc(Nc2nnc3cc(-c4c(C)cccc4C)cc(C)c3n2)c1C` [(2,3-dimethyl-phenyl)-[7-(2,6-dimethyl-phenyl)-5-methyl-benzo[1,2,4]triazin-3-yl]-amine], the IC50 was more than 10000 nM.
To `Cc1ccc(Nc2nnc3cc(-c4c(C)cccc4C)cc(C)c3n2)c(C)c1` [(2,4-dimethyl-phenyl)-[7-(2,6-dimethyl-phenyl)-5-methyl-benzo[1,2,4]triazin-3-yl]-amine] belongs more than 10000 nM; to `Cc1ccc(C)c(Nc2nnc3cc(-c4c(C)cccc4C)cc(C)c3n2)c1` [(2,5-dimethyl-phenyl)-[7-(2,6-dimethyl-phenyl)-5-methyl-benzo[1,2,4]triazin-3-yl]-amine], more than 10000 nM; to `COc1ccccc1Nc1nnc2cc(-c3c(C)cccc3C)cc(C)c2n1` [(2-methoxy-phenyl)-[7-(2,6-dimethyl-phenyl)-5-methyl-benzo[1,2,4]triazin-3-yl]-amine], more than 100000 nM.
For `Cc1cccc(C)c1-c1cc(C)c2nc(Nc3cccc(Cl)c3)nnc2c1` [(3-chloro-phenyl)-[7-(2,6-dimethyl-phenyl)-5-methyl-benzo[1,2,4]triazin-3-yl]-amine], the concentration for half-maximal inhibition (IC50) amounted to 134 nM.
As to `CCCCc1ccc(Nc2nnc3cc(-c4c(C)cccc4C)cc(C)c3n2)cc1` [(4-butyl-phenyl)-[7-(2,6-dimethyl-phenyl)-5-methyl-benzo[1,2,4]triazin-3-yl]-amine], the half-maximal inhibitory concentration (IC50) was more than 100000 nM.
Under `CCOc1ccc(Nc2nnc3cc(-c4c(C)cccc4C)cc(C)c3n2)cc1` [(4-ethoxy-phenyl)-[7-(2,6-dimethyl-phenyl)-5-methyl-benzo[1,2,4]triazin-3-yl]-amine] stands 108 nM; under `COc1ccc(Nc2nnc3cc(-c4c(C)cccc4C)cc(C)c3n2)cc1` [(4-methoxy-phenyl)-[7-(2,6-dimethyl-phenyl)-5-methyl-benzo[1,2,4]triazin-3-yl]-amine], 140 nM.
In the case of `Cc1cc(N2CCCCC2)cc2nnc(Nc3cccnc3)nc12` [(5-methyl-7-piperidin-1-yl-benzo[1,2,4]triazin-3-yl)-pyridin-3-yl-amine], the IC50 is more than 10000 nM.
`Cc1cc(-c2ccccn2)cc2nnc(Nc3ccc(OCCN4CCCC4)cc3)nc12` [(5-methyl-7-pyridin-2-yl-benzo[1,2,4]triazin-3-yl)-[4-(2-pyrrolidin-1-yl-ethoxy)-phenyl]-amine]: the IC50 was determined as 1800 nM.
To `Cc1cc(-c2cc(OC(=O)c3ccccc3)ccc2Cl)cc2nnc(Nc3ccc(OCCN4CCCC4)cc3)nc12` [Benzoic acid 4-chloro-3-{5-methyl-3-[4-(2-pyrrolidin-1-yl-ethoxy)-phenylamino]-benzo[1,2,4]triazin-7-yl}-phenyl ester] belongs more than 10000 nM.
Under `CC(=O)Nc1nnc2cc(-c3c(C)cccc3C)cc(C)c2n1` [N-[7-(2,6-dimethyl-phenyl)-5-methyl-benzo[1,2,4]triazin-3-yl]-acetamide] stands more than 10000 nM.
To `Cc1cccc(C)c1-c1cc(C)c2nc(NC(=O)c3ccccc3)nnc2c1` [N-[7-(2,6-dimethyl-phenyl)-5-methyl-benzo[1,2,4]triazin-3-yl]-benzamide] belongs 1800 nM; to `Cc1cc(C)c(-c2cc(C)c3nc(Nc4ccccc4)nnc3c2)c(C)c1` [[5-methyl-7-(2,4,6-trimethyl-phenyl)-benzo[1,2,4]triazin-3-yl]-phenyl-amine], more than 10000 nM.
